Experimental data: US11873321B2, “Compositions and methods for treating alzheimer's disease” (Generos Biopharma Ltd., priority 2017, dated 2024)

Experiments:
SH-SY5Y cells = conditions: co-treatment with 25-OHC, cells lysed 24 h later, blotted for APP
[1] = test system: APP over-expression SH-SY5Y cell line; test: ELISA measurement of Aβ42 in exosomes collected from cell culture medium; assay type: cell-based, human; conditions: different concentration of 25-OHC; three independent experiments
Description: ELISA measurement of Aβ42 in exosomes collected from cell culture medium with different concentration of 25-OHC treatment. Data are representative of three independent experiments. *p<0.05.
(§1) SH-SY5Y cells over-express human APP were cultured in DMEM with 10% FBS. One day before exosome preparation, medium was changed to blank DMEM to avoid the contamination of serum exosomes. 24 hour after medium change, the mediums were collected, and spin at 200 g for 5 min to pellet down floating cells. The cell free medium was further centrifuged at 100,000 g for 1 h at 4° C., and the pellet containing exosomes was dissolved in RIPA buffer
Quantification of Aβ42 was carried out with ELISA kit (Millipore) according to the manufactures' instructions.
Data are representative of three independent experiments.

[2] = test system: APP over-expression SH-SY5Y cell line; test: Western blot of APP in cell lysate and in exosomes purified from the medium after 25-OHC treatment; assay type: cell-based, human; conditions: different dosage of 25-OHC
Description: (§2) FIGS. 8A-8C show graphs and images depicting that treatment with 25-OHC decreased exosomal APP but increases intracellular APP. SH-SY5Y cells with APP over-expression were treated with different dosage of 25-OHC.
as §1
We used APP over-expression SH-SY5Y cell line to further check if the difference in exosomal APP is due to 25-OHC. Cells were treated with different dosage of 25-OHC and both cell lysate and exosomes from medium were collected. […] In contract, as the dosage of 25-OHC increased, more APP was found in the cell lysate fraction.

[3] = test system: APP over-expression SH-SY5Y cell line; test: FACS analysis of surface APP; assay type: cell-based, human; conditions: 25-OHC treated vs control cells
Description: as §2
More amounts of APP were detected on the cell surface of cells overexpressing APP after 25-OHC treatment.

APP trafficking in cells = test: Trafficking of antibody-labelled surface APP (fixed time points, time-lapse); assay type: cell-based; conditions: 25-OHC treated vs untreated cells; in untreated cells signal disappeared within 6 hours
Description: FIGS. 10A-10C show images depicting increased retention time of APP inside cells after treatment with 25-OHC. […] Cells were fixed at different time points to check the distribution of APP at specific time.
We went on to check the trafficking of APP protein. Surface APP were labeled by antibody, and cells were put back to incubator and fixed at different time point for staining.

APP/PS1 mice = conditions: 2-month-old, injected every other day for 1 month, vs saline
Description: Mice at 2-month-old were injected with 25-OHC or saline as control every other day for duration of 1 month. Brains from these mice were sectioned and stained for amyloid-beta.
All experiments were performed with mice 3-4 months old and approved by the Institutional Animal Care and Use Committee of NUS.
Tissues were fixed in 4% paraformaldehyde, dehydrated, penetrated and paraffin embedded. […] For immunofluorescence (IF) or immunohistochemistry (IHC), sections were rehydrated and stained with primary antibody against Aβ (Cell signaling), followed by incubation with fluorescence-conjugated secondary antibodies (Invitrogen).

Structure (SMILES) | effect on 25-OHC induced increase of cellular APP (SH-SY5Y cells) | Aβ42 in exosomes (ELISA) [1] | cellular APP (cell lysate, Western blot) ([2]; APP over-expression SH-SY5Y cells) | exosomal APP (Western blot) ([2]; exosomes from medium) | amount of APP on cell surface (FACS) [3] | trafficking / retention of APP in cells (APP trafficking in cells) | amount of Aβ in brain (plaque staining) (APP/PS1 mice)
CC(C)(C)C(=O)OCC(=O)[C@@]1(O)CC[C@H]2[C@@H]3CCC4=CC(=O)C=C[C@]4(C)[C@H]3[C@@H](O)C[C@@]21C [prednisolone trimethylacetate] | had no effect |  |  |  |  |  | 
C[C@H](CCCC(C)(C)O)[C@H]1CC[C@H]2[C@@H]3CC=C4C[C@@H](O)CC[C@]4(C)[C@H]3CC[C@]12C [25-OHC, 25-hydroxylated cholesterol] |  | increased Aβ42 in exosomes | dosage dependent effect to increase cellular APP | decreasing exosomal APP | increased the amount of APP on cell surface | the trafficking of APP was slower | significant high amount of Aβ
